In brackets after ≈: the same amount, converted by molar mass.
Key:
Pityrosporon ovale = assay: oil submersion test on Sabouraud agar with scales of patients with seborrhoeal eczema; format: cell-based; details: 1% in olive oil; incubation for 4 days
Protocol: In addition, the efficacy against pityrosporon of 1% Usnea extract in olive oil in comparison with 1% amphotericin was investigated. For this purpose, scales of patients with seborrhoeal eczema were applied to Sabouraud agar and covered with a layer of the oil. After incubation for 4 days in an incubator, the number of colony-forming units was counted.

UV erythema test = format: in vivo, healthy test persons; details: 1.5 times MED UVB, applied in Finn chambers for 24 hours; FIG. 5
Protocol: The minimal erythema dose for UVB was determined in the case of seven healthy test persons. Thereafter, test fields on the back were exposed to 1.5 times the minimal erythema dose (MED). The test substances were applied in Finn chambers for 24 hours. The UV-induced erythema was determined photometrically before exposure and after action of the substances.

Propionibacterium acnes = assay: agar dilution test (MIC/MBC); format: cell-based; details: Cutibacterium acnes
Protocol: The old man's beard CO2 extract (Usnea barbata L.) was tested in the concentrations 1:10, 1:50, 1:100, 1:500 and 1:1000 in the agar dilution test for a number of aerobic and anaerobic bacteria. The pure substance usnic acid was tested in concentrations of 128/64/32/16/8/4/2/1/0.5/0.25 and 0.125 μg/ml. The MIC (minimum inhibitory concentration) is defined as >90% inhibition of bacterial growth after 24 h. The MBC (minimum bactericidal concentration) is defined as >90% inhibition of the growth at 48 h.

## C[C@@H]1[C@H](O)[C@@H](C)/C=C/C=C/C=C/C=C/C=C/C=C/C=C/[C@H](O[C@@H]2O[C@H](C)[C@@H](O)[C@H](N)[C@@H]2O)C[C@@H]2O[C@](O)(C[C@@H](O)C[C@@H](O)[C@H](O)CC[C@@H](O)C[C@@H](O)CC(=O)O[C@H]1C)C[C@H](O)[C@H]2C(=O)O [1% Amphotericin in olive oil, amphotericin]
Pityrosporon ovale
  growth of the pityrosporon yeast fungi: inhibited completely
  number of colony-forming units: 1 CFU

## CCOC(=O)O[C@]1(C(=O)COC(=O)CC)CC[C@H]2[C@@H]3CCC4=CC(=O)C=C[C@]4(C)[C@H]3[C@@H](O)C[C@@]21C [Prednicarbate]
UV erythema test
  UV-induced inflammation (erythema, photometric): inhibit the UV-induced inflammation

## CC(=O)c1c(O)c(C)c(O)c2c1OC1=CC(=O)C(C(C)=O)C(=O)C12C (centres unmarked) [Usnic acid, usnic acid]
Propionibacterium acnes; >90% inhibition of bacterial growth after 24 h
  MIC: 1 µg/mL (≈ 2.9 µM)
Propionibacterium acnes; >90% inhibition of the growth at 48 h
  MBC: 4 µg/mL (≈ 11.6 µM)
